Source: PMC6193938, “Characterization of a novel AICARFT inhibitor which potently elevates ZMP and has anti-tumor activity in murine models” (Scientific Reports, 2018)

Key:
Experiment in all cases: CEREP protein kinase assay
Assay type in all cases: biochemical
ERK2 = target: T1, ERK2 (Homo sapiens, UniProt P28482)
T1 construct: purchased CEREP Panlabs (Eurofins)

EPHA3 = target: T2, EPHA3 (Homo sapiens, UniProt P29320)
T2 construct: purchased CEREP Panlabs (Eurofins)
T2 sequence (P29320 21-983): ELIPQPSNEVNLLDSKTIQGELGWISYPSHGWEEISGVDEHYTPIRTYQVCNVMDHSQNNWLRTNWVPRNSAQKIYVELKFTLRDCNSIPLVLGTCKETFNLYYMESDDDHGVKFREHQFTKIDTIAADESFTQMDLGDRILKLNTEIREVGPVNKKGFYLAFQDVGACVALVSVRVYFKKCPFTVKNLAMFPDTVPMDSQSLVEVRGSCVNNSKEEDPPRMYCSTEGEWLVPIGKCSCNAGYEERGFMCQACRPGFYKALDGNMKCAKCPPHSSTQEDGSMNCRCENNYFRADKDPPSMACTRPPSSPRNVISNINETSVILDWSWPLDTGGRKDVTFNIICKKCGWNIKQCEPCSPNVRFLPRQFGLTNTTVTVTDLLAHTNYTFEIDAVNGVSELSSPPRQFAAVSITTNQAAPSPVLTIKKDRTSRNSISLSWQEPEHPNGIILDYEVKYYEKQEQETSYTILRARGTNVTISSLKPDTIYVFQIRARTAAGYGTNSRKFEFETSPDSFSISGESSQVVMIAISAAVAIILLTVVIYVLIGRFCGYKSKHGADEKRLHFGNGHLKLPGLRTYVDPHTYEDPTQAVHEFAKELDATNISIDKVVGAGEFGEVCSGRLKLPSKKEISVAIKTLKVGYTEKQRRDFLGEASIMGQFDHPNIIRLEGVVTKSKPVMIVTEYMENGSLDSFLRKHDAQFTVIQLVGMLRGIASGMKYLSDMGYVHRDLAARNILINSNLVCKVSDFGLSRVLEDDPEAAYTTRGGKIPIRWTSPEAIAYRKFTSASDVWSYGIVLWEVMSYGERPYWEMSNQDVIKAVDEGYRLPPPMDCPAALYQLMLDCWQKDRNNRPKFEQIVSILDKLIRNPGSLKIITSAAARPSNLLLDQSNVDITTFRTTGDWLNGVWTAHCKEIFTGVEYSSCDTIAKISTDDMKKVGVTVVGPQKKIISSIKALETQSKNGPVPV

FER = target: T3, FER (Homo sapiens, UniProt P16591)
T3 construct: purchased CEREP Panlabs (Eurofins)
T3 sequence (P16591 whole entry): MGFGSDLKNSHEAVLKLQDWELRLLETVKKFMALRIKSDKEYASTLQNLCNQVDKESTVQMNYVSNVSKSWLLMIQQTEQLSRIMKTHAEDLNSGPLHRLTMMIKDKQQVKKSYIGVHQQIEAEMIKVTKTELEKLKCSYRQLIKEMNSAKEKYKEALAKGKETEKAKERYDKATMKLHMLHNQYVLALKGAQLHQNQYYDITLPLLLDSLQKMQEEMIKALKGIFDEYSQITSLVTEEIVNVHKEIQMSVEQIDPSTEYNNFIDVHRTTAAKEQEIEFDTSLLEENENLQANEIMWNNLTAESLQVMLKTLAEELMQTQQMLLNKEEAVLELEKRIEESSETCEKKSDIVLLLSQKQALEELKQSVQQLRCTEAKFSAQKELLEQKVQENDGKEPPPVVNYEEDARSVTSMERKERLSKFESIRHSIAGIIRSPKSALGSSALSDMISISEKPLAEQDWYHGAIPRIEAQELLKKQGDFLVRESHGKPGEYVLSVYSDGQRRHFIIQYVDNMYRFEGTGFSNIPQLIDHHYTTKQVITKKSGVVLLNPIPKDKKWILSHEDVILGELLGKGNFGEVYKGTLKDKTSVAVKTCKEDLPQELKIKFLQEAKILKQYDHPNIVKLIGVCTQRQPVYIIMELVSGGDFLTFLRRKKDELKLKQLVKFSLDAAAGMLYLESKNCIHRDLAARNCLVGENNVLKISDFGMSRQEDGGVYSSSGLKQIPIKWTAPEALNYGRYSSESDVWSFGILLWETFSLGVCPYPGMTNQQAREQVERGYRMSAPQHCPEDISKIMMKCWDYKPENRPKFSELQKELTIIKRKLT

JAK3 = target: T4, JAK3 (Homo sapiens, UniProt P52333)
T4 construct: purchased CEREP Panlabs (Eurofins)
T4 sequence (P52333 1-1124): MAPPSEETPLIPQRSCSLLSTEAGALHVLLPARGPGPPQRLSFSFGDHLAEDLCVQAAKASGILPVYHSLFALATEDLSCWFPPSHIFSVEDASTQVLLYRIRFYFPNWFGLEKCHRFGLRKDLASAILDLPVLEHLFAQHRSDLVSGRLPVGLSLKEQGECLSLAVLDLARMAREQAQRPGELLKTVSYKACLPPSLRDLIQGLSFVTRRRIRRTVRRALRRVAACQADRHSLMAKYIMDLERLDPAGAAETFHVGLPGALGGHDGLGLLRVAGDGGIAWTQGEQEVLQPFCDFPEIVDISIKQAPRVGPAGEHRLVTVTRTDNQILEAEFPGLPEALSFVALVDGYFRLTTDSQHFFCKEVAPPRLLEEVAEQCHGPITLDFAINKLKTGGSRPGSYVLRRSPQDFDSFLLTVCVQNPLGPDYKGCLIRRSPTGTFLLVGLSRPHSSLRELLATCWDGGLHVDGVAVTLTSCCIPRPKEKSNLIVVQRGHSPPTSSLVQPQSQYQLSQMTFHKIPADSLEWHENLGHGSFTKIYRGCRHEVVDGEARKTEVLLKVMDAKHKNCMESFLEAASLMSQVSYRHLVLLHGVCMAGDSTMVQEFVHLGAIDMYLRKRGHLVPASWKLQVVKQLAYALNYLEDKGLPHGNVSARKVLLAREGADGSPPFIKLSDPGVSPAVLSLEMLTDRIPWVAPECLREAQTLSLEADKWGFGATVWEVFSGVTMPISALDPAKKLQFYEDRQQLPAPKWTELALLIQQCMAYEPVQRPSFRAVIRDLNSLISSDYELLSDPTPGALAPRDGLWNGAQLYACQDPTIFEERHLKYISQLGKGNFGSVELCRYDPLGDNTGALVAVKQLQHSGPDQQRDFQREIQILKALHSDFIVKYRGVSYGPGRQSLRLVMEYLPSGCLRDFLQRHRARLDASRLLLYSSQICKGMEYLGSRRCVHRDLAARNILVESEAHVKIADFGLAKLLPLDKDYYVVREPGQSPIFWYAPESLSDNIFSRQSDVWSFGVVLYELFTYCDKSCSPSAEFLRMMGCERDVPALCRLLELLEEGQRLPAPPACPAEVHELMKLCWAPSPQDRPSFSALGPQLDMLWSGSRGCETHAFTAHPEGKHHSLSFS

PLK3 = target: T5, PLK3 (Homo sapiens, UniProt Q9H4B4)
T5 construct: purchased CEREP Panlabs (Eurofins)
T5 sequence (Q9H4B4 whole entry): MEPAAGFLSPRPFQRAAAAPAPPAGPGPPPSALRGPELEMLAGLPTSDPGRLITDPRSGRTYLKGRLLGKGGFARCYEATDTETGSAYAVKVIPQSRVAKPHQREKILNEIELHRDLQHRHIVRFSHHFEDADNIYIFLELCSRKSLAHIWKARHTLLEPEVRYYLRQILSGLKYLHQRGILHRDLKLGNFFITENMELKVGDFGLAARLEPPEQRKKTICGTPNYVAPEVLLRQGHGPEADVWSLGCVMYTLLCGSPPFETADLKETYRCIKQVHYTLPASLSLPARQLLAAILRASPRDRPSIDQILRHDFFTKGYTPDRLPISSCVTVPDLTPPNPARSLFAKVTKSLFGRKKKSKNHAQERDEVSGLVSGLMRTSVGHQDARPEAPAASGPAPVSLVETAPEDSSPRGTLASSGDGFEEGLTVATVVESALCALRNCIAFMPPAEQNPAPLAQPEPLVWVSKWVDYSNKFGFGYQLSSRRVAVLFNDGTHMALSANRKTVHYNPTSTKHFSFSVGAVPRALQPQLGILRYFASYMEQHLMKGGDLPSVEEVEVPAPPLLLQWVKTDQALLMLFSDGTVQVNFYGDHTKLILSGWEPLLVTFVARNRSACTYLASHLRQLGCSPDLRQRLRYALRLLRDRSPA

T1 sequence (P28482 whole entry): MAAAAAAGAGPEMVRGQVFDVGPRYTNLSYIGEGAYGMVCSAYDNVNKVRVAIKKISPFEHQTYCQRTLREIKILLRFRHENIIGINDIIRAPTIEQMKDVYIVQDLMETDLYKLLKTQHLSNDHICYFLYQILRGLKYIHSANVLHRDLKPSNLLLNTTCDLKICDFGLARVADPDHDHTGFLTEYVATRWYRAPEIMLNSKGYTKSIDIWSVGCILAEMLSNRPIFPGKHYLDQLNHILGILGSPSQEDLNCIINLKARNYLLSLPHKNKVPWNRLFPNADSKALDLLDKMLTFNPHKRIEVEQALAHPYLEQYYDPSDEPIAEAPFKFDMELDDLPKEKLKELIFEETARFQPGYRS

Compound: O=c1[nH]ccc2cc(F)c(NS(=O)(=O)c3ccc(N4CC[C@@H](O)C4)s3)cc12 [LSN3213128, N-(6-Fluoro-1-oxo-1,2-dihydroisoquinolin-7-yl)-5-[(3R)-3-hydroxypyrrolidin-1-yl]thiophene-2-sulfonamide]
- inhibition at 0.2 µM (ERK2; @ 0.2 uM): -4.25%
- inhibition at 2 µM (ERK2; @ 2 uM): 11.1%
- inhibition at 20 µM (ERK2; @ 20 uM): 60.3%
- inhibition at 0.2 µM (EPHA3; @ 0.2 uM): -2.09%
- inhibition at 2 µM (EPHA3; @ 2 uM): 9.04%
- inhibition at 20 µM (EPHA3; @ 20 uM): 51.6%
- inhibition at 0.2 µM (FER; @ 0.2 uM): 3.36%
- inhibition at 2 µM (FER; @ 2 uM): 18%
- inhibition at 20 µM (FER; @ 20 uM): 11.1%
- inhibition at 0.2 µM (JAK3; @ 0.2 uM): -5.81%
- inhibition at 2 µM (JAK3; @ 2 uM): 2.78%
- inhibition at 20 µM (JAK3; @ 20 uM): 28.6%
- inhibition at 0.2 µM (PLK3; @ 0.2 uM): 13.4%
- inhibition at 2 µM (PLK3; @ 2 uM): 12%
- inhibition at 20 µM (PLK3; @ 20 uM): 60.5%
